Earlier results as cited in US20080318886A1, “Methods of Increasing Cancer Sensitivity to Chemotherapeutic Agents Using Chimeric ISF35” (priority 2006, published 2008).

Test system: CLL
Details: CLL patients, first line treatment

Compound: Nc1nc(F)nc2c1ncn2[C@@H]1O[C@H](CO)[C@@H](O)[C@@H]1O [Fludaribine]
- overall response rate: ~70%
